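At the GI50, growth is halved. TGI: concentration producing complete growth inhibition.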
Key:
Assay in all cases: inhibition of tumour cell growth, NCI panel, 384-well format
[1] = test system: OVCAR-3 ovarian
[2] = test system: MCF7 breast
[3] = test system: IGROV1 ovarian
[4] = test system: UACC-257 melanoma
[5] = test system: HL-60(TB) leukemia
[6] = test system: EKVX NSCLC
[7] = test system: BT-549 breast
[8] = test system: T-47D breast
[9] = test system: SK-MEL-28 melanoma
[10] = test system: CAKI-1 renal
[11] = test system: NCI-H460 NSCLC
[12] = test system: TK-10 renal
[13] = test system: LOX IMVI melanoma
[14] = test system: PC-3 prostate
[15] = test system: M14 melanoma
[16] = test system: SK-OV-3 ovarian
[17] = test system: MDA-MB-435 melanoma
[18] = test system: RXF 393 renal
[19] = test system: K-562 leukemia
[20] = test system: OVCAR-4 ovarian
[21] = test system: SNB-19 CNS
[22] = test system: KM12 colon
[23] = test system: SF-539 CNS
[24] = test system: COLO 205 colon
[25] = test system: HOP-62 NSCLC
[26] = test system: SN12C renal
[27] = test system: U251 glioblastoma
[28] = test system: A549 NSCLC
[29] = test system: MDA-MB-468 breast
[30] = test system: A498 renal
[31] = test system: NCI-H522 lung
[32] = test system: 786-0 renal
[33] = test system: HCC-2998 colon
[34] = test system: SW-620 colon
[35] = test system: OVCAR-8 ovarian
[36] = test system: HT29 colon
[37] = test system: DU-145 prostate
[38] = test system: ACHN renal
[39] = test system: UO-31 renal
[40] = test system: NCI-H322M lung
[41] = test system: CCRF-CEM leukemia
[42] = test system: SK-MEL-5 melanoma
[43] = test system: NCI/ADR-RES ovarian
[44] = test system: HOP-92 NSCLC
[45] = test system: NCI-H226 lung
[46] = test system: OVCAR-5 ovarian
[47] = test system: SR leukemia
[48] = test system: SF-295 CNS
[49] = test system: MALME-3M melanoma
[50] = test system: RPMI-8226 leukemia
[51] = test system: HS 578T breast
[52] = test system: MOLT-4 leukemia
[53] = test system: SNB-75 CNS
[54] = test system: NCI-H23 lung
[55] = test system: UACC-62 melanoma
[56] = test system: HCT-15 colon
[57] = test system: MDA-MB-231 breast
[58] = test system: SF-268 CNS

Cc1cc(N2CCOCC2)cc2[nH]c(-c3c(NC[C@@H](O)c4cccc(Cl)c4)cc[nH]c3=O)nc12
GI50 [1]: 2880 nM | TGI [1]: 12500 nM | GI50 [2]: 244 nM | TGI [2]: 11600 nM | GI50 [3]: 1340 nM | TGI [3]: 3260 nM | GI50 [4]: 2170 nM | TGI [4]: 9080 nM | GI50 [5]: 85.6 nM | TGI [5]: 1100 nM | GI50 [6]: 663 nM | TGI [6]: 2710 nM | GI50 [7]: 1830 nM | TGI [7]: 4760 nM | GI50 [8]: 3840 nM | TGI [8]: 16200 nM | GI50 [9]: 1250 nM | TGI [9]: 6950 nM | GI50 [10]: 1770 nM | TGI [10]: 4290 nM | GI50 [11]: 607 nM | TGI [11]: 2760 nM | GI50 [12]: 1760 nM | TGI [12]: 4730 nM | GI50 [13]: 845 nM | TGI [13]: 2070 nM | GI50 [14]: 3180 nM | TGI [14]: 13800 nM | GI50 [15]: 735 nM | TGI [15]: 5440 nM | GI50 [16]: 1630 nM | TGI [16]: 5780 nM | GI50 [17]: 691 nM | TGI [17]: 3560 nM | GI50 [18]: 1440 nM | TGI [18]: 2910 nM | GI50 [19]: 1810 nM | TGI [19]: 4120 nM | GI50 [20]: 1830 nM | TGI [20]: 6990 nM | GI50 [21]: 2790 nM | TGI [21]: 8230 nM | GI50 [22]: 16.3 nM | TGI [22]: 121 nM | GI50 [23]: 1520 nM | TGI [23]: 2920 nM | GI50 [24]: 243 nM | TGI [24]: 1030 nM | GI50 [25]: 2480 nM | TGI [25]: 9040 nM | GI50 [26]: 715 nM | TGI [26]: 2420 nM | GI50 [27]: 3300 nM | TGI [27]: 12100 nM | GI50 [28]: 1540 nM | TGI [28]: 5240 nM | GI50 [29]: 2230 nM | TGI [29]: 4730 nM | GI50 [30]: 2190 nM | TGI [30]: 4840 nM | GI50 [31]: 1530 nM | TGI [31]: 3830 nM | GI50 [32]: 1830 nM | TGI [32]: 4360 nM | GI50 [33]: 1170 nM | TGI [33]: 2530 nM | GI50 [34]: 1760 nM | TGI [34]: 11300 nM | GI50 [35]: 3290 nM | TGI [35]: 11100 nM | GI50 [36]: 203 nM | TGI [36]: 1640 nM | GI50 [37]: 1740 nM | TGI [37]: 4580 nM | GI50 [38]: 1510 nM | TGI [38]: 9760 nM | GI50 [39]: 1780 nM | TGI [39]: 5010 nM | GI50 [40]: 1880 nM | TGI [40]: 11300 nM | GI50 [41]: 2110 nM | TGI [41]: 3940 nM | GI50 [42]: 1320 nM | TGI [42]: 4140 nM | GI50 [43]: 3280 nM | TGI [43]: 11100 nM | GI50 [44]: 477 nM | TGI [44]: 1920 nM | GI50 [45]: 197 nM | TGI [45]: 1760 nM | GI50 [46]: 831 nM | TGI [46]: 4470 nM | GI50 [47]: 1150 nM | TGI [47]: 2390 nM | GI50 [48]: 2440 nM | TGI [48]: 7730 nM | GI50 [49]: 415 nM | TGI [49]: 3990 nM | GI50 [50]: 1560 nM | TGI [50]: 3130 nM | GI50 [51]: 1500 nM | TGI [51]: 3070 nM | GI50 [52]: 1150 nM | TGI [52]: 2500 nM | GI50 [53]: 1840 nM | TGI [53]: 3590 nM | GI50 [54]: 234 nM | TGI [54]: 2640 nM | GI50 [55]: 2510 nM | TGI [55]: 11700 nM | GI50 [56]: 1960 nM | TGI [56]: 10100 nM | GI50 [57]: 2030 nM | TGI [57]: 10400 nM | GI50 [58]: 1760 nM | TGI [58]: 4770 nM
